Tests used:
KAT6B = target: T1, KAT6B (Homo sapiens, UniProt Q8WYB5); experiment: Kat6b activity assay (TR-FRET, acetylation of biotinylated histone H4 peptide); type: biochemical; details: recombinant human GST-tagged Kat6b (431-end), 30 mins at 22° C., read-out: KAT6B activity assay IC50 [mol/l] (arithmetic mean)
T1 construct: fused on or other part: N-terminal GST tag
Excerpt: Kat6b inhibitory activities of the compounds described in the present invention were quantified using a Fluorescence Resonance Energy Transfer (TR-FRET) assay which measures acetylation of a synthetic, biotinylated Histone-H4-derived peptide by the enzyme.
Recombinant human GST-tagged Kat6b protein (431-end, N-terminal GST-tag), purified from Baculovirus-infected insect cells (Sf9), was purchased from SignalChem (#K315-381BG). Histone H4 peptide (amino acids 1-24, […]-VLRD-K(Btn)-amide), which was used as substrate, was synthesized by Biosyntan GmbH, Berlin, Germany. Acetyl Coenzyme A was purchased from Sigma-Aldrich (#A-2056).
(§1) Kat6b was incubated for 30 mins at 22° C. in the presence of different concentrations of test substances (0 μM, and within the range 0.01-20 μM) in assay buffer [25 mM Tris/HCl pH 8, 1 mM EGTA, 2.5 mM Glutathion, 0.02% Chicken Albumin, 0.05% Pluronic F127, 25 mM NaCl, 500 nM H4 peptide and 600 nM Acetyl Coenzyme A].
The reaction was stopped by addition of Detection Solution (25 mM HEPES pH 7.5, 0.1% BSA, 22 nM SAXL665 (Cisbio #610SAXLE), 100 μM Anacardic Acid (Enzo #ALX-270-381), 1 nM Anti-Histone H4 (ACETYL K8) Antibody (ABCAM #AB15823), 0.5 nM Anti-Rabbit IgG Eu (Perkin Elmer #AD0083).
(§2) The fluorescence emission at 620 nm and 665 nm after excitation at 330-350 nm was measured in a TR-FRET measuring instrument, for instance a Rubystar or a Pherastar (both from BMG Lab Technologies, Offenburg, Germany) or a Viewlux (Perkin-Elmer). The ratio of the emission at 665 nm and at […] was used as indicator of the amount of acetylated peptide.
(§3) The resulting data (ratio) were normalized, taking 0% inhibition as the mean value of control measurements where all reagents were included. In this case 50 nl DMSO were used instead of compounds. […] IC50 values were determined by regression analysis based on a 4 parameter equation (minimum, maximum, ICM, Hill; Y=Max+(Min−Max)/(1+(X/ICso) Hill) using the Screener Software (Genedata).

ZR-75-1 cells = experiment: Proliferation assay in ZR-75-1 cells; type: cell-based; details: Homo sapiens, 144 h, Alamar Blue, read-out: ZR75-1 proliferation assay, EC50[M] (arithmetic mean)
Excerpt: (§4) For compound characterization cell survival assays were routinely run in two cell lines. ZR-75-1 is a breast carcinoma cell line containing a focal KAT6A amplification and high KAT6A protein expression. Proliferation of this cell line is inhibited upon treatment with KAT6A inhibitors. As a negative control cell line MDA-MB-436 were used. These cells carry a […] deletion of the KAT6A gene, have a low KAT6A protein expression and are not growth inhibited upon treatment with KAT6A inhibitors.
(§5) For measurements cell lines were plated at the below indicated concentration per […] in 96-well plates in a humidified incubator at 37° C. and 5% CO2.
(§6) ZR-75-1 (ATCC, CRL-1500; breast carcinoma); 3000 cells per well; culture medium: RPMI 1640 (Biochrom #FG 1215) medium containing 2.5% FBS (Biochrom #S0615). LCLC-97TM1 (DSMZ, ACC 388; large cell lung carcinoma); 6000 cells per well; culture medium: RPMI 1640 (Biochrom #FG 1215) medium containing 2.5% FBS (Biochrom #S0615). MDA-MB-436 (CLS, 300278; breast adenocarcinoma); 3000 cells per well; culture medium: DMEM/Ham's F12 (Biochrom #FG 4815) medium containing 2.5% FBS (Biochrom #S0615).
(§7) Each sample was prepared as triplicate and rim wells were excluded. Plates were incubated at 37° C. and 5% CO2 for 144 h. Cell viability was measured by adding 10 μL of Alamar Blue Reagent (Invitrogen #DAL 1100) and plates were incubated for 2 h at 37° C. and 5% CO2. Fluorescence was measured at 590 nm wavelength with a Tecan Spark or Victor X3 MTP-Reader (PerkinElmer).

KAT6A = target: T2, KAT6A (Homo sapiens, UniProt Q92794); experiment: Kat6a activity assay (TR-FRET, acetylation of biotinylated histone H4 peptide); type: biochemical; details: recombinant human His-tagged Kat6a (amino acids 194-810), 60 mins at 22° C., read-out: KAT6A-DPF/HAT domain IC50 [mol/l] (arithmetic mean)
T2 construct: Recombinant human His-tagged Kat6a protein (amino acids 194-810); His; made in house; host or cells: Baculovirus-infected Sf9 insect cells
T2 sequence (Q92794 194-810): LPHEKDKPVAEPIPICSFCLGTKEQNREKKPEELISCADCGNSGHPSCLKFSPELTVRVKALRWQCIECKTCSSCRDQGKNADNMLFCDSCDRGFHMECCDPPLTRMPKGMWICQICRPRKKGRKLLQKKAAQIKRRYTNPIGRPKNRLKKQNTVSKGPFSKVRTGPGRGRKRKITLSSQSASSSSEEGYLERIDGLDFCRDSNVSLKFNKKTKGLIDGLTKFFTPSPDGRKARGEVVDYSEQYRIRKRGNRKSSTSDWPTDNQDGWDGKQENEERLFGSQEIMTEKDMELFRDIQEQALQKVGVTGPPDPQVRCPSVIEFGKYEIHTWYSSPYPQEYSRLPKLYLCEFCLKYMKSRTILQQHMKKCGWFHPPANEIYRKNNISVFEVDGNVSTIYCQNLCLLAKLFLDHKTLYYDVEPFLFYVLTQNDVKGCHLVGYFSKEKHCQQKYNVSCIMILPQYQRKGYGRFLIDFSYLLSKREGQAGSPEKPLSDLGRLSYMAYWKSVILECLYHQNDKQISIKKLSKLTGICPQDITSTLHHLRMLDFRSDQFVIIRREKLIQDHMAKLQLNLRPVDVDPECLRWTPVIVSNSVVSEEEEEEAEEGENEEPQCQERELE
Excerpt: Kat6a inhibitory activities of the compounds described in the present invention were quantified using a Fluorescence Resonance Energy Transfer (TR-FRET) assay which measures acetylation of a synthetic, biotinylated Histone-H4-derived peptide by the enzyme.
Recombinant human His-tagged Kat6a protein (amino acids 194-810), was purified in-house from Baculovirus-infected insect cells (Sf9). Histone H4 peptide (amino acids 1-24, […]-VLRD-K(Btn)-amide), which was used as substrate, was synthesized by Biosyntan GmbH, Berlin, Germany. Acetyl Coenzyme A was purchased from Sigma-Aldrich (#A-2056).
as §1, with “Kat6a” for “Kat6b”, “60” for “30”, “220” for “500”
The reaction was stopped by addition of Detection Solution (25 mM HEPES pH 7.5, 0.1% BSA, 22 nM SAXL665 (Cisbio #610SAXLE), 100 μM Anacardic Acid (Enzo #ALX-270-381), 1 nM Anti-Histone H4 (ACETYL K8) Antibody (ABCAM #AB15823) and 0.5 nM Anti-Rabbit IgG Eu (Perkin Elmer #AD0083).
as §2, §3

[1] = tested on: ESR1 transcription in MVLN cells; experiment: Repression of ESR1 transcription, MVLN luciferase reporter assay; type: cell-based; details: Homo sapiens, luciferase signal after 24 h, read-out: MVLN reporter assay, IC50[M] (arithmetic mean)
Excerpt: KAT6A controls transcription of the ESR1 gene in breast cancer cells. Compound treatment that interferes with this mechanism was quantified using MVLN cells. These cells constitutively express the ER and are stably transfected with the luciferase (LUC) reporter gene and the corresponding hormone responsive element derived from the 5′-flanking region of the Xenopus Vitellogenin A2 gene (Pons et al., 1990, Demirpense et al., 1993, Joyeux et al., 1993). The repressive effect on ERα transcription activity of a test chemical is directly related to the luciferase measured in the lysate of treated MVLN cells.
Each sample was prepared as duplicate and rim wells were excluded. For luciferase signal determination 100 μl of a 1:1 mixture of Steadylite plus (Perkin Elmer; 6016759) and assay medium was added after 24 h for 15 minutes and measured in Victor X3 (Perkin Elmer). To exclude any effects caused by cell loss during the treatment, cell density was determined using Alamar Blue (Invitrogen; DAL1100). Prior to the luciferase measurement 10 μl Alamar Blue were added to each well and the plates were incubated for 2 h in the incubator. Then fluorescence was measured with Victor X3 (Perkin Elmer) at 530 nm/590 nm.

MDA-MB-436 cells = experiment: Proliferation assay in MDA-MB-436 cells (negative control cell line); type: cell-based; details: Homo sapiens, 144 h, Alamar Blue, read-out: MDA-MB-436 proliferation assay, EC50[M] (arithmetic mean)
Excerpt: as §4, §5, §6, §7

LCLC-97TM1 cells = experiment: Proliferation assay in LCLC-97TM1 cells; type: cell-based; details: Homo sapiens, 144 h, Alamar Blue, read-out: LCLC97TM1 proliferation assay, EC50[M] (arithmetic mean)
Experimental: as §5, §6, §7

T1 sequence (Q8WYB5 723-2073 limits assumed): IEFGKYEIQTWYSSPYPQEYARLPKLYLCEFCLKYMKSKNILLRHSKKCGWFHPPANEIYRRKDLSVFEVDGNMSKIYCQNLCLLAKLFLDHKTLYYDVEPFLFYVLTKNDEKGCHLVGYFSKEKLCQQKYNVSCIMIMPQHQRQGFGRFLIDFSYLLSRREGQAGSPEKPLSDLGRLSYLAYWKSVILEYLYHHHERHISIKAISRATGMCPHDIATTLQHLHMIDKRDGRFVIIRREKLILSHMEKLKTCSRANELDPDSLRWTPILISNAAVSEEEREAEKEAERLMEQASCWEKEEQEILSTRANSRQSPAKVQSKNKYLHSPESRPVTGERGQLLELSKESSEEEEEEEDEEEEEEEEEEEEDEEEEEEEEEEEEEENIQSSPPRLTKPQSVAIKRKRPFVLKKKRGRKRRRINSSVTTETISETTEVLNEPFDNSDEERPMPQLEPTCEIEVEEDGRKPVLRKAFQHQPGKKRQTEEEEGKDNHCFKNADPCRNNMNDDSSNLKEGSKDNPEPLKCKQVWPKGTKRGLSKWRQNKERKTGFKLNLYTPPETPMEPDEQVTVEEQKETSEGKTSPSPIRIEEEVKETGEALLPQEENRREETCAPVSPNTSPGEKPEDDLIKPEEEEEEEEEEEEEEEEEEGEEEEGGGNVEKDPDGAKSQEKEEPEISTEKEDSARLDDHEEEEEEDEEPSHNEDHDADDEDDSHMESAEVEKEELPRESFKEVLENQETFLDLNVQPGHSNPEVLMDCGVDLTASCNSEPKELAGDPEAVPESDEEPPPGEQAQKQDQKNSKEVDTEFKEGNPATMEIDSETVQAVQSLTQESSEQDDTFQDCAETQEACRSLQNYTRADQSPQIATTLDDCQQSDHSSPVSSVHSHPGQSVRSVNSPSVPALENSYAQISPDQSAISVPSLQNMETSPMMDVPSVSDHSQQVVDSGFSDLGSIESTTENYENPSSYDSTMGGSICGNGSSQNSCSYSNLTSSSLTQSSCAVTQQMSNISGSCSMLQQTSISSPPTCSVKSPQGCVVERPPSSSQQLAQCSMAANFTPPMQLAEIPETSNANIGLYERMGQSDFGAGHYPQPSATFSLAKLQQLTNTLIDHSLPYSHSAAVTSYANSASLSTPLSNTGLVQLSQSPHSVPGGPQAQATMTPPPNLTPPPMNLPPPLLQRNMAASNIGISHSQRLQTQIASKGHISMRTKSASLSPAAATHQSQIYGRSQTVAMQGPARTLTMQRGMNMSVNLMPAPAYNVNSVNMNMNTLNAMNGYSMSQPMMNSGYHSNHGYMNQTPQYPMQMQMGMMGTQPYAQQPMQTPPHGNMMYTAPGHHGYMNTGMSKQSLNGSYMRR

| IC50 (KAT6B) [µM] | IC50 (KAT6A) [µM] | IC50 [1] [M] | EC50 (MDA-MB-436 cells) [M] | Compound | EC50 (ZR-75-1 cells) [M] | EC50 (LCLC-97TM1 cells) [M] |
| --- | --- | --- | --- | --- | --- | --- |
| 1.73 | 1.13 | 5.08e-06 | > 2e-05 | CCOc1ccccc1S(=O)(=O)NC(=O)c1cc2c(OC)cc(C)cc2o1 [Example 13, N-(2-Ethoxybenzene-1-sulfonyl)-4-methoxy-6-methyl-1-benzofuran-2-carboxamide] | 1.02e-05 |  |
| 0.372 | 0.401 | 6.05e-06 | > 2e-05 | COc1cc(C)cc2oc(C(=O)NS(=O)(=O)c3ccc(C)cc3-c3ccccc3)cc12 [Example 12, 4-Methoxy-6-methyl-N-(5-methyl[1,1′-biphenyl]-2-sulfonyl)-1-benzofuran-2-carboxamide] | 1.03e-05 |  |
| 4.79 | 3.38 | 1.31e-05 |  | O=C(NS(=O)(=O)c1ccccc1-c1ccccc1)c1cc2ccc(-c3ccc(F)cc3)cc2o1 [Example 1, N-([1,1′-biphenyl]-2-sulfonyl)-6-(4-fluorophenyl)-1-benzofuran-2-carboxamide] |  |  |
| 0.019 | 0.0141 | 2.47e-07 |  | O=C(NS(=O)(=O)c1ccccc1OC1CC1)c1cc2c(F)cc(C3CC3)cc2o1 [Example 24, 6-Cyclopropyl-N-[2-(cyclopropyloxy)benzene-1-sulfonyl]-4-fluoro-1-benzofuran-2-carboxamide] | 6.74e-07 |  |
| 0.0225 | 0.00948 | 2.81e-07 |  | Cc1ccc2cccc(S(=O)(=O)NC(=O)c3cc4c(F)cc(C5CC5)cc4o3)c2n1 [Example 22, 6-Cyclopropyl-4-fluoro-N-(2-methylquinoline-8-sulfonyl)-1-benzofuran-2-carboxamide] | 1.26e-06 |  |
|  | 0.729 | 3.63e-06 | > 2e-05 | Cc1ccc2cccc(S(=O)(=O)NC(=O)c3cc4ccc(C(F)(F)F)cc4o3)c2n1 [Example 19, N-(2-Methylquinoline-8-sulfonyl)-6-(trifluoromethyl)-1-benzofuran-2-carboxamide] | 4.94e-06 | > 2e-05 |
|  | 0.0173 | 1e-06 | > 2e-05 | O=C(NS(=O)(=O)c1ccccc1-c1ccccc1)c1cc2c(F)cc(C3CC3)cc2o1 [Example 38, 6-Cyclopropyl-4-fluoro-N-(2-phenylphenyl)sulfonyl-benzofuran-2-carboxamide] | 9.57e-07 | 3.21e-06 |
|  | 15.2 | 1.98e-05 | > 2e-05 | O=C(NS(=O)(=O)c1ccccc1-c1ccccc1)c1cc2ccc(-c3cccnc3)cc2o1 [Example 4, N-([1,1′-biphenyl]-2-sulfonyl)-6-(pyridin-3-yl)-1-benzofuran-2-carboxamide] | > 2e-05 | > 2e-05 |
|  | 0.827 | 5.56e-06 | > 2e-05 | CCOc1ccccc1S(=O)(=O)NC(=O)c1oc2cc(C)ccc2c1C [Example 18, N-(2-Ethoxybenzene-1-sulfonyl)-3,6-dimethyl-1-benzofuran-2-carboxamide] | 5.01e-06 | 1.06e-05 |
|  | 0.0799 | 1.68e-05 | > 2e-05 | CCOc1ccccc1S(=O)(=O)NC(=O)c1cc2c(N(C)C)cc(C3CC3)cc2o1 [Example 45, 6-Cyclopropyl-4-(dimethylamino)-N-(2-ethoxyphenyl)sulfonyl-benzofuran-2-carboxamide] | > 2e-05 | > 2e-05 |
|  | 0.417 | > 2e-05 | > 2e-05 | CN(C)c1cc(C2CC2)cc2oc(C(=O)NS(=O)(=O)c3ccccc3)cc12 [Example 42, N-(Benzenesulfonyl)-6-cyclopropyl-4-(dimethylamino)benzofuran-2-carboxamide] | > 2e-05 | > 2e-05 |
|  | 0.00478 | 4.65e-06 | > 2e-05 | Cc1ccc2cccc(S(=O)(=O)NC(=O)c3cc4c(OC(F)F)cc(C5CC5)cc4o3)c2n1 [Example 47, 6-Cyclopropyl-4-(difluoromethoxy)-N-[(2-methyl-8-quinolyl)sulfonyl]benzofuran-2-carboxamide] | 3.24e-06 | > 2e-05 |
| 2.85 | 1.13 | 1.56e-05 |  | COCCc1ccc2cc(C(=O)NS(=O)(=O)c3ccccc3-c3ccccc3)oc2c1 [Example 26, N-([1,1′-biphenyl]-2-sulfonyl)-6-(2-methoxyethyl)-1-benzofuran-2-carboxamide] |  |  |
| 2.58 | 1.3 |  | > 2e-05 | O=C(NS(=O)(=O)c1ccccc1-c1ccccc1)c1cc2ccc(C(F)F)cc2o1 [Example 17, N-([1,1′-Biphenyl]-2-sulfonyl)-6-(difluoromethyl)-1-benzofuran-2-carboxamide] | 6.12e-06 |  |
